We go through one molecule from patent publication US9301987B2, “Anti-adipogenic compositions containing Piper betle and Dolichos biflorus” (LAILA NUTRACEUTICALS, priority 2007, dated 2016).

The test system of assay [1] is diet induced obesity in rats. Kind of assay: Protective effect against diet induced obesity in rats (treatment simultaneous with high fat diet). Type of assay: in vivo, Sprague-Dawley rats. As to conditions: 7 mg/kg per day oral, 8 weeks, vs untreated control group. The protocol: Selected healthy Sprague-Dawley rats were randomly assigned to control or various treatment groups (n=6). All the animals allocated for protective phase of the study were on dietary intervention by feeding high fat diet ad libitum and the animals allocated to treatment groups were simultaneously given oral administration of 250 mg/kg Piper betle hydroalcohol extract per day in 10 mL of 0.5% CMC, using gastric tube for the entire 8 week study duration. The test animals of the control group were simultaneously given 10 ml/kg 0.5% CMC. The animals of positive control group were given 7 mg/kg sibutramine in 10 mL of 0.5% CMC. Food and water consumptions were recorded daily, body weights were recorded weekly and fasting blood samples were collected before initiation, after 4th week and 8th week (termination) of the study. […] Upon administration of Piper betle alcohol extract for a period of 60 days, the level of triglyceride in the obese rats was reduced by 33%. The levels of serum cholesterol and LDL were reduced by 22% and 23% respectively, whereas the level of HDL was increased by 11%.
Selected healthy Sprague-Dawley rats were randomly assigned to control or various treatment groups (n=6). […] Food and water consumption were recorded daily, body weights were recorded weekly and fasting blood samples were collected before initiation, after 4th week and 8th week (termination) of the study. […]

The next assay has as its system diet induced obese rats. Kind of assay: Anti-obese activity in diet induced obese rats (treatment after 8 weeks high fat diet). Type of assay: in vivo, Sprague-Dawley rats. As to conditions: 7 mg/kg per day oral, vs untreated control group. How it is done:
Selected healthy Sprague-Dawley rats were randomly assigned for control or various treatment groups (n=6). All the animals allocated for the study were made obese through dietary intervention by feeding high fat diet ad libitum for 8 weeks. After 8 weeks, the treatment group of animals was given oral administration of 250 mg/kg of Piper betle 60% methanol extract per day in 10 mL of 0.5% CMC, using gastric tube for 8 week study duration. The control group of animals was given 10 ml/kg of 0.5% CMC. The animals of positive control group were given 7 mg/kg sibutramine per day in 10 mL of 0.5% CMC. Food and water consumptions were recorded daily, body weights were recorded weekly and fasting blood samples were collected before initiation, after 4th week and 8th week (termination) of the study.
Selected healthy Sprague-Dawley rats were randomly assigned to control or various treatment groups (n=6). All the animals allocated for the study were made obese through dietary intervention by feeding high fat diet ad libitum for 8 weeks. […] Food and water consumption were recorded daily, body weights were recorded weekly and fasting blood samples were collected before initiation, after 4th week and 8th week (termination) of the study.

Take `CC(C)CC(N(C)C)C1(c2ccc(Cl)cc2)CCC1` (centres unmarked) [sibutramine]: the “reduction (protection) in weight gain” value in assay [1] came out at 44.4%. The “reduction in mean body weight gain” value in the assay on diet induced obese rats is reported as ~87%.
